Assay results reported in patent US20140162968A1, “METHOD FOR SCREENING OF AGENT FOR TREATING OR PREVENTING OBESITY” (priority 2011, published 2014).

How the values were obtained:
p-CREB = assay: Expression of p-CREB in the hypothalamus by Western blotting; format: in vivo, rat; conditions: oral anthocyanin 24 mg, 40 days, versus control; Western blot
PKA-α = assay: Expression of PKA-α in the hypothalamus by Western blotting; format: in vivo, rat; conditions: oral anthocyanin 24 mg, 40 days, versus control; Western blot
[1] = Body weight change and daily food uptake in rats orally administered anthocyanin for 40 days; format: in vivo, rat; conditions: for weight increase: male Sprague-Dawley rats, control 79.33 g; for weight increase / weight at end of period: 40 days; for weight at end of period: control 116.33 g
Description: For use in assay for the preventive and therapeutic effect of anthocyanin on obesity, male Sprague-Dawley rats, 60 days old (the Experimental Animal Breeding Center of the Gyeongsang National University, Jinju, Korea)) were divided groups of four which were then orally administered with anthocyanin at a dose of 6 mg and 24 mg, respectively, or not administered with anthocyanin for a control. They were maintained for 40 days in a temperature-controlled condition with lighting 06:00-20:00. While being maintained, the rats in each group were monitored for weight change and daily food uptake, and the results are shown in FIG. 1.

GABAB receptor = assay: Expression of GABAB receptor in the hypothalamus by Western blotting; format: in vivo, rat; conditions: rats administered anthocyanin orally, 40 days, versus control; Western blot densitometry
Description: To examine the effect of an obesity prevention and treatment agent on the expression of GABAB receptor, the animals maintained as in Example 1 were collectively sacrificed at 10:00 AM 40 days after the oral administration, and the hypothalamus was excised from each of them. The hypothalamic sample was homogenized in 0.2 M PBS containing a protease inhibitor cocktail. Protein levels were measured using a Bio-Rad protein analysis solution, and after two rounds of ultracentrifugation at 4° C. and 12,000 rpm for 20 min, the supernatants containing proteins were separated. […] This membrane was blocked with 5% (v/v) skim milk to reduce non-specific binding, and incubated with a primary goat anti-GABABR1 antibody (1:200; Santa Cruz Biotechnology, Santa Cruz, Calif., USA) and an anti-beta-actin antibody for quantitative comparison, followed by immune reaction with a secondary HRP (horseradish peroxidase)-conjugated anti-goat and anti-rabbit IgG (1:1000; Santa Cruz Biotechnology, Santa Cruz, Calif., USA). Protein levels were determined by chemiluminescence using ECL-detecting reagent (Amersham Pharmacia Biotech, Western blotting detection reagents). Western blots on the X-ray film were analyzed by densitometry using computer-based Sigma Gel (SPSS Inc. Chicago, USA), and the results are shown in FIG. 3.

[2] = tested on: epididymal white adipose tissue; assay: Epididymal white adipose tissue adipocyte number per unit area (hematoxylin-eosin staining); format: in vivo, rat; conditions: epididymal WAT, 40 days, control 18.75
Description: For hematoxylin-eosin staining, an epididymal white adipose tissue (WAT) was fixed at 4° C. for 72 hrs in ice-chilled 1× PBS containing 4% para-formaldehyde, and immersed at 4° C. for 72 hrs in 20% sucrose sucrose phosphate buffer for cryoprotection. The fixed tissue was frozen with O.C.T compound (A. O. USA), and 10 μm coronal sections were made in coronal planes (Leica cryostat CM 3050, Germany). The sections were mounted on a probe-on, positively charged slide at room temperature and stored at −70° C. until use.
The animals bred as in Example 1 were collectively sacrificed at 10:00 AM 40 days after the oral administration, and epididymal white adipose tissue (WAT) was excised from each sacrificed animal and used for comparison of obesity. The epididymal WAT was fixed at 4° C. for 72 hrs in ice-chilled 1× PBS containing 4% para-formaldehyde, and immersed at 4° C. for 72 hrs in a 20% sucrose phosphate buffer for cryoprotection. The fixed tissue was frozen with O.C.T compound (A. O. USA), and 10 μm coronal sections were made in coronal planes (Leica cryostat CM 3050, Germany). The sections were mounted on probe-on, positively charged slides and thawed at room temperature for 3 hrs. […] Cover slips were mounted on the slides which were observed under a […] at 400× magnification.

neuropeptide Y = assay: Expression of neuropeptide Y in the hypothalamus by Western blotting; format: in vivo, rat; conditions: oral anthocyanin 24 mg, 40 days, versus control; Western blot
[3] = tested on: lipase in the small intestines; conditions: background statement; cited from earlier work

Compound	expression level of p-CREB in the hypothalamus (p-CREB)	expression level of PKA-α in the hypothalamus (PKA-α)	weight increase ([1]; oral anthocyanin 6 mg) [g]	weight increase ([1]; oral anthocyanin 24 mg) [g]	weight at end of period ([1]; oral anthocyanin 6 mg, from 32.33 g) [g]	weight at end of period ([1]; oral anthocyanin 24 mg, from 28.33 g) [g]	daily food uptake ([1]; oral anthocyanin 24 mg, control 20.03 g) [g]	expression level of GABAB receptor in the hypothalamus (GABAB receptor)	number of adipocytes per unit area ([2]; oral anthocyanin 6 mg) [cells/250 mm^2]	number of adipocytes per unit area ([2]; oral anthocyanin 24 mg) [cells/250 mm^2]	expression level of neuropeptide Y in the hypothalamus (neuropeptide Y)	reduction of fat absorption [3]
anthocyanin	increase	decrease	69	69.67	101.33	98	16.43	increased	22.47	22.8	decreased	–
CCCCCCCCCCC[C@@H](C[C@@H]1OC(=O)[C@H]1CCCCCC)OC(=O)[C@H](CC(C)C)NC=O [Orlistat]	–	–	–	–	–	–	–	–	–	–	–	about 30%
